These results are taken from patent US8940724B2, “Quinoline derivitives and their uses” (Amgen Inc., priority 2009, dated 2015).

This assay deals with T1, PI3Kδ (Homo sapiens, UniProt O00329).
T1 construct: Full length p110 subunits of PI3k α, β and δ, N-terminally labeled with polyHis tag; polyHis (N); made in house; host or cells: Sf9 insect cells (baculovirus)
Description: PI3Kδ Alphascreen assay. Type of assay: biochemical.

T1 sequence (O00329 whole entry): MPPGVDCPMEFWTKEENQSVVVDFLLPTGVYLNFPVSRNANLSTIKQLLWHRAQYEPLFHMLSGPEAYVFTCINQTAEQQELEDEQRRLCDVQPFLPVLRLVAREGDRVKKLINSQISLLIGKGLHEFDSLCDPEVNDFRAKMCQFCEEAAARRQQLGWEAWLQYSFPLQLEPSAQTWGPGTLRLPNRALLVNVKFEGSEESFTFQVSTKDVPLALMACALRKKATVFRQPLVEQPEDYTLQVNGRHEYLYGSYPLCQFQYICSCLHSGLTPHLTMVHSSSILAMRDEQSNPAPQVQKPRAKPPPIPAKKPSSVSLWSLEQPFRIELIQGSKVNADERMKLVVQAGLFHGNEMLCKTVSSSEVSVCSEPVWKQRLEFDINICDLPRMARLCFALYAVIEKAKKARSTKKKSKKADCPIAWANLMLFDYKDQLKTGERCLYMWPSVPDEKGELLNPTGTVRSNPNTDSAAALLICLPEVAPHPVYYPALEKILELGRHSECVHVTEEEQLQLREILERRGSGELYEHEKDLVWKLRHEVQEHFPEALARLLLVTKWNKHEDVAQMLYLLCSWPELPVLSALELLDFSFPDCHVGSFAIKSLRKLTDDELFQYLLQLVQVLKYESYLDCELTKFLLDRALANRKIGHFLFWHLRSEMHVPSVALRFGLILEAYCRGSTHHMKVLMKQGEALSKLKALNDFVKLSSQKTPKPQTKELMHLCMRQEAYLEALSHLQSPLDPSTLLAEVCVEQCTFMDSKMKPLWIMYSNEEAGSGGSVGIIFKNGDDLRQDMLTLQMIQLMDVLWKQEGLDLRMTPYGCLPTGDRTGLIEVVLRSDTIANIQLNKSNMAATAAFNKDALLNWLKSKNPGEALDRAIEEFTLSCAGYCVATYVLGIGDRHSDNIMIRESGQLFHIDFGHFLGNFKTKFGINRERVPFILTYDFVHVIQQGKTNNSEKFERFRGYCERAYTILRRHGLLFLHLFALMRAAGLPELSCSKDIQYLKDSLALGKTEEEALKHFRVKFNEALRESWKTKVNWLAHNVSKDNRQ
T1 sequence (P27986 whole entry partner): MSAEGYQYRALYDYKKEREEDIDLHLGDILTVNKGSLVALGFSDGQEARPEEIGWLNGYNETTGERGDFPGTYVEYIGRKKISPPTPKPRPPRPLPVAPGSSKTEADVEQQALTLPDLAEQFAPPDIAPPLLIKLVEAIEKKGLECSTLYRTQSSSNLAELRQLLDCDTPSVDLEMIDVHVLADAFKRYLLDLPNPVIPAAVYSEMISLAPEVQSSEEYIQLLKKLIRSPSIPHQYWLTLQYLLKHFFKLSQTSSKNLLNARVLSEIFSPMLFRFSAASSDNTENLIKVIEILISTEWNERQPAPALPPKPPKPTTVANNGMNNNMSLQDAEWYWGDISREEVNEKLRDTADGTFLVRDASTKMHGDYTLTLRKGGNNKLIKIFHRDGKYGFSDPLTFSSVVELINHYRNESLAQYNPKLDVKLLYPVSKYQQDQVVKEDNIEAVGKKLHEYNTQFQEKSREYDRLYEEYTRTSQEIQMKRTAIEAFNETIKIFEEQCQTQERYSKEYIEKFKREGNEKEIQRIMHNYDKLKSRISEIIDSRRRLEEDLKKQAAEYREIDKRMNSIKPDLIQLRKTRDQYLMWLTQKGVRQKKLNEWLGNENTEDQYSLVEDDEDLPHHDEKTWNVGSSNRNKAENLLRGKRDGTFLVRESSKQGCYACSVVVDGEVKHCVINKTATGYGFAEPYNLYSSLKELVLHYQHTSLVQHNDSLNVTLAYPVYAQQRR

As a reminder, the Ki is a measure of affinity in units of concentration, obtained from inhibition or displacement. For the compound `Cc1c(N2CCN(c3cccnc3)CC2)nc2cc(F)cc(F)c2c1Nc1cncc(N2CCOCC2)c1` [5,7-difluoro-3-methyl-N-(5-(4-morpholinyl)-3-pyridinyl)-2-(4-(3-pyridinyl)-1-piperazinyl)-4-quinolinamine], affinity was put at a Ki of 11.8 nM.
With `Cc1c(N2CCN(C(=O)c3cccnc3)CC2)nc2cc(F)cc(F)c2c1Nc1cncc(N2CCOCC2)c1` [5,7-difluoro-3-methyl-N-(5-(4-morpholinyl)-3-pyridinyl)-2-(4-(3-pyridinylcarbonyl)-1-piperazinyl)-4-quinolinamine] the figure was 343 nM; with `Cc1c(N2CCN(S(=O)(=O)c3cccnc3)CC2)nc2cc(F)cc(F)c2c1Nc1cncc(N2CCOCC2)c1` [5,7-difluoro-3-methyl-N-(5-(4-morpholinyl)-3-pyridinyl)-2-(4-(3-pyridinylsulfonyl)-1-piperazinyl)-4-quinolinamine], 67.5 nM.
As for `Cc1c(N2CCN(C(=O)c3ccncn3)CC2)nc2cc(F)cc(F)c2c1Nc1cncc(N2CCOCC2)c1` [5,7-difluoro-3-methyl-N-(5-(4-morpholinyl)-3-pyridinyl)-2-(4-(4-pyrimidinylcarbonyl)-1-piperazinyl)-4-quinolinamine], the Ki is 99.1 nM.
With `Cc1c(N2CCN(C(=O)c3ccccc3)CC2)nc2cc(F)cc(F)c2c1Nc1cncc(N2CCOCC2)c1` [5,7-difluoro-3-methyl-N-(5-(4-morpholinyl)-3-pyridinyl)-2-(4-(phenylcarbonyl)-1-piperazinyl)-4-quinolinamine] the figure was 87.9 nM.
The value for `Cc1c(N2CCN(S(=O)(=O)c3ccccc3)CC2)nc2cc(F)cc(F)c2c1Nc1cncc(N2CCOCC2)c1` [5,7-difluoro-3-methyl-N-(5-(4-morpholinyl)-3-pyridinyl)-2-(4-(phenylsulfonyl)-1-piperazinyl)-4-quinolinamine] was 33.4 nM; that for `Cc1c(N2CCN(C(=O)C3CCOCC3)CC2)nc2cc(F)cc(F)c2c1Nc1cncc(N2CCOCC2)c1` [5,7-difluoro-3-methyl-N-(5-(4-morpholinyl)-3-pyridinyl)-2-(4-(tetrahydro-2H-pyran-4-ylcarbonyl)-1-piperazinyl)-4-quinolinamine] was 55.7 nM.
`Cc1c(N2CCN(c3ccccc3)CC2)nc2cc(F)cc(F)c2c1Nc1cncc(N2CCOCC2)c1` [5,7-difluoro-3-methyl-N-(5-(4-morpholinyl)-3-pyridinyl)-2-(4-phenyl-1-piperazinyl)-4-quinolinamine] yielded a Ki of 78.1 nM.
Compound `CCCN1CCN(c2nc3cc(F)cc(F)c3c(Nc3cncc(N4CCOCC4)c3)c2C)CC1` [5,7-difluoro-3-methyl-N-(5-(4-morpholinyl)-3-pyridinyl)-2-(4-propyl-1-piperazinyl)-4-quinolinamine] gave a Ki of 13.5 nM.
Consider `Cc1c(-c2ccc(N3CCNCC3)nc2)nc2cc(F)cc(F)c2c1Nc1cncc(N2CCOCC2)c1` [5,7-difluoro-3-methyl-N-(5-(4-morpholinyl)-3-pyridinyl)-2-(6-(1-piperazinyl)-3-pyridinyl)-4-quinolinamine], for which affinity was put at a Ki of 432 nM.
For the compound `Cc1c(-c2ccc(N3CCCCC3)nc2)nc2cc(F)cc(F)c2c1Nc1cncc(N2CCOCC2)c1` [5,7-difluoro-3-methyl-N-(5-(4-morpholinyl)-3-pyridinyl)-2-(6-(1-piperidinyl)-3-pyridinyl)-4-quinolinamine], the Ki is 517 nM.
The value for `Cc1c(-c2ccc(N3CCOCC3)nc2)nc2cc(F)cc(F)c2c1Nc1cncc(N2CCOCC2)c1` [5,7-difluoro-3-methyl-N-(5-(4-morpholinyl)-3-pyridinyl)-2-(6-(4-morpholinyl)-3-pyridinyl)-4-quinolinamine] was 444 nM; that for `Cc1c(N2CCN(CC(F)(F)F)CC2)nc2cc(F)cc(F)c2c1N(CC(F)(F)F)c1cncc(N2CCOCC2)c1` [5,7-difluoro-3-methyl-N-(5-(4-morpholinyl)-3-pyridinyl)-N-(2,2,2-trifluoroethyl)-2-(4-(2,2,2-trifluoroethyl)-1-piperazinyl)-4-quinolinamine] was 493 nM; that for `Cc1c(-c2cccnc2)nc2cc(F)cc(F)c2c1Nc1cc(N2CCOC[C@H]2C)cnc1N1CCOCC1` [5,7-difluoro-3-methyl-N-(5-((3R)-3-methyl-4-morpholinyl)-2-(4-morpholinyl)-3-pyridinyl)-2-(3-pyridinyl)-4-quinolinamine] was 69.5 nM.
With `Cc1c(-c2cccnc2)nc2cc(F)cc(F)c2c1Nc1cc(N2CCOC[C@@H]2C)cnc1N1CCOCC1` [5,7-difluoro-3-methyl-N-(5-((3S)-3-methyl-4-morpholinyl)-2-(4-morpholinyl)-3-pyridinyl)-2-(3-pyridinyl)-4-quinolinamine] the figure was 21.4 nM; with `COc1ccccc1-c1ncc(N2CCOCC2)cc1Nc1c(C)c(-c2ccccn2)nc2cc(F)cc(F)c12` [5,7-difluoro-N-(2-(2-methoxyphenyl)-5-(4-morpholinyl)-3-pyridinyl)-3-methyl-2-(2-pyridinyl)-4-quinolinamine], 8.53 nM; with `COc1cc(C)c(-c2ncc(N3CCOCC3)cc2Nc2c(C)c(-c3ccccn3)nc3cc(F)cc(F)c23)c(C)c1` [5,7-difluoro-N-(2-(4-methoxy-2,6-dimethylphenyl)-5-(4-morpholinyl)-3-pyridinyl)-3-methyl-2-(2-pyridinyl)-4-quinolinamine], 0.972 nM.
Take `COc1ccc(-c2ncc(N3CCOCC3)cc2Nc2c(C)c(-c3cc(C)ccn3)nc3cc(F)cc(F)c23)cc1` [5,7-difluoro-N-(2-(4-methoxyphenyl)-5-(4-morpholinyl)-3-pyridinyl)-3-methyl-2-(4-methyl-2-pyridinyl)-4-quinolinamine]: affinity was put at a Ki of 5.98 nM. This Ki is about 6.2-fold higher than that of the compound before.
For the compound `COc1cncc(-c2ccc(N3CCOCC3)cc2Nc2c(C)c(-c3ccccn3)nc3cc(F)cc(F)c23)c1` [5,7-difluoro-N-(2-(5-methoxy-3-pyridinyl)-5-(4-morpholinyl)-phenyl)-3-methyl-2-(2-pyridinyl)-4-quinolinamine], the Ki was determined as 0.627 nM.
In turn, `COc1ccc(-c2ccc(N3CCOCC3)cc2Nc2c(C)c(-c3ccccc3S(C)(=O)=O)nc3cc(F)cc(F)c23)cn1` [5,7-difluoro-N-(2-(6-methoxy-3-pyridinyl)-5-(4-morpholinyl)-phenyl)-3-methyl-2-(2-(methylsulfonyl)phenyl)-4-quinolinamine] yielded a Ki of 2.73 nM.
As to `COc1ccc(-c2ccc(N3CCOCC3)cc2Nc2c(C)c(-c3ccccn3)nc3cc(F)cc(F)c23)cn1` [5,7-difluoro-N-(2-(6-methoxy-3-pyridinyl)-5-(4-morpholinyl)-phenyl)-3-methyl-2-(2-pyridinyl)-4-quinolinamine], the Ki was 3.19 nM. The Ki values of the last two compounds are within 1.5-fold of each other.
Turning to `COc1ccc(-c2ccc(N3CCOCC3)cc2Nc2c(C)c(-c3cc(C)ccn3)nc3cc(F)cc(F)c23)cn1` [5,7-difluoro-N-(2-(6-methoxy-3-pyridinyl)-5-(4-morpholinyl)-phenyl)-3-methyl-2-(4-methyl-2-pyridinyl)-4-quinolinamine], the Ki was determined as 3.59 nM.
In turn, `COc1ccc(-c2ccc(N3CCOCC3)cc2Nc2c(C)c(-c3ccccn3)nc3cc(F)cc(F)c23)cc1` [5,7-difluoro-N-(4′-methoxy-4-(4-morpholinyl)-2-biphenylyl)-3-methyl-2-(2-pyridinyl)-4-quinolinamine] had a Ki of 38.5 nM.
The compound `Cc1c(-c2ccccn2)nc2cccc(F)c2c1Nc1cc(N2CCOCC2)ccc1S(C)(=O)=O` [5-fluoro-3-methyl-N-(2-(methylsulfonyl)-5-(4-morpholinyl)-phenyl)-2-(2-pyridinyl)-4-quinolinamine] came in with a Ki of 0.485 nM.
`Cc1c(-c2cc([N+](=O)[O-])ccc2F)nc2cc(F)ccc2c1Nc1cncc(N2CCOCC2)c1` [7-fluoro-2-(2-fluoro-5-nitrophenyl)-3-methyl-N-(5-(4-morpholinyl)-3-pyridinyl)-4-quinolinamine] had a Ki of 47.5 nM.
The value for `Cc1ccnc(-c2nc3c(Cl)cccc3c(Nc3cncc(N4CCOCC4)c3)c2C)c1` [8-chloro-3-methyl-2-(4-methyl-2-pyridinyl)-N-(5-(4-morpholinyl)-3-pyridinyl)-4-quinolinamine] was 2.39 nM; that for `Cc1c(-c2ccccn2)nc2c(Cl)cccc2c1Nc1cncc(N2CCOCC2)c1` [8-chloro-3-methyl-N-(5-(4-morpholinyl)-3-pyridinyl)-2-(2-pyridinyl)-4-quinolinamine] was 7.45 nM.
The value for `Cc1ccnc(-c2nc3c(Cl)cccc3c(Nc3cc(N4CCOCC4)cnc3N3CCOCC3)c2C)c1` [8-chloro-N-(2,5-di-4-morpholinyl-3-pyridinyl)-3-methyl-2-(4-methyl-2-pyridinyl)-4-quinolinamine] was 9.49 nM; that for `Cc1c(-c2ccccn2)nc2c(Cl)c(F)cc(F)c2c1Nc1cc(N2CCOCC2)cnc1N1CCOCC1` [8-chloro-N-(2,5-di-4-morpholinyl-3-pyridinyl)-5,7-difluoro-3-methyl-2-(2-pyridinyl)-4-quinolinamine] was 2.85 nM; that for `Cc1c(-c2ccccn2)nc2c(Cl)ccc(F)c2c1Nc1cc(N2CCOCC2)cnc1N1CCOCC1` [8-chloro-N-(2,5-di-4-morpholinyl-3-pyridinyl)-5-fluoro-3-methyl-2-(2-pyridinyl)-4-quinolinamine] was 2.57 nM.
The compound `Cc1c(-c2ccccn2)nc2c(Cl)c(F)ccc2c1Nc1cc(N2CCOCC2)cnc1N1CCOCC1` [8-chloro-N-(2,5-di-4-morpholinyl-3-pyridinyl)-7-fluoro-3-methyl-2-(2-pyridinyl)-4-quinolinamine] registered a Ki of 22.6 nM.
With `Cc1c(-c2cc([C@@H](C)O)ccc2S(C)(=O)=O)nc2cc(F)cc(F)c2c1Nc1cncc(N2CCOCC2)c1` [(1R)-1-(3-(5,7-difluoro-3-methyl-4-((5-(4-morpholinyl)-3-pyridinyl)amino)-2-quinolinyl)-4-(methylsulfonyl)phenyl)-ethanol] the figure was 1.57 nM; with `Cc1c(-c2ccccn2)nc2cc(F)cc(F)c2c1Nc1cc(C2=CCOCC2)cnc1C1=CCOCC1` [N-(2,5-di-3,6-dihydro-2H-pyran-4-yl-3-pyridinyl)-5,7-difluoro-3-methyl-2-(2-pyridinyl)-4-quinolinamine], 3.08 nM.
`C=Cc1ccnc(-c2nc3cc(F)cc(F)c3c(Nc3cc(N4CCOCC4)cnc3N3CCOCC3)c2C)c1` [N-(2,5-di-4-morpholinyl-3-pyridinyl)-2-(4-ethenyl-2-pyridinyl)-5,7-difluoro-3-methyl-4-quinolinamine] returned a Ki of 119 nM.
